Source: patent US20230085307A1, “PYRIDAZINONE COMPOUND AND HERBICIDE” (NISSAN CHEMICAL CORPORATION, priority 2019, published 2023)

Tests used:
barnyard grass [1] = assay: Test Example 3: herbicidal effect by foliage application, Wagner pot (Table 18, symbol H); type: in vivo, barnyard grass (Echinochloa crus-galli); conditions: 320 g/ha
In short: (§1)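 Plants were sown in alluvial soil held under 0.1–0.5 cm standing water and grown 14 days in a greenhouse at 25–30 °C. An emulsifiable formulation, water-diluted to the set dose, was then sprayed onto the foliage, and effects were scored three weeks later using previously defined criteria.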

Chinese sprangletop = assay: Test Example 3: herbicidal effect by foliage application, Wagner pot (Table 18, symbol D); type: in vivo, chinese sprangletop (Leptochloa chinensis); conditions: 320 g/ha
In short: as §1

rice flat sedge = assay: Test Example 3: herbicidal effect by foliage application, Wagner pot (Table 18, symbol E); type: in vivo, rice flat sedge (Cyperus iria); conditions: 320 g/ha
In short: as §1

southern crabgrass [2] = assay: Test Example 4: herbicidal effect by soil treatment (Table 19, symbol F); type: in vivo, southern crabgrass (Digitaria ciliaris); conditions: amount of applied herbicide 320 g/ha
In short: (§2)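 Step 1: sow seeds in sterilized diluvial soil, cover ~1.5 cm. Step 2: spray diluted emulsion onto soil surface at predetermined rate. Step 3: greenhouse, 25–30° C, three weeks. Step 4: grade effect on each plant by earlier criteria.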

green foxtail [3] = assay: Test Example 4: herbicidal effect by soil treatment (Table 19, symbol G); type: in vivo, green foxtail (Setaria viridis); conditions: amount of applied herbicide 320 g/ha
In short: as §2

barnyard grass [4] = assay: Test Example 4: herbicidal effect by soil treatment (Table 19, symbol H); type: in vivo, barnyard grass (Echinochloa crus-galli); conditions: amount of applied herbicide 320 g/ha
In short: as §2

wild oat [5] = assay: Test Example 4: herbicidal effect by soil treatment (Table 19, symbol I); type: in vivo, wild oat (Avena fatua); conditions: amount of applied herbicide 320 g/ha
In short: as §2

blackgrass [6] = assay: Test Example 4: herbicidal effect by soil treatment (Table 19, symbol J); type: in vivo, blackgrass (Alopecurus myosuroides); conditions: amount of applied herbicide 320 g/ha
In short: as §2

Italian ryegrass [7] = assay: Test Example 4: herbicidal effect by soil treatment (Table 19, symbol K); type: in vivo, Italian ryegrass (Lolium multiflorum); conditions: amount of applied herbicide 320 g/ha
In short: as §2

windgrass [8] = assay: Test Example 4: herbicidal effect by soil treatment (Table 19, symbol L); type: in vivo, windgrass (Apera spica-venti); conditions: amount of applied herbicide 320 g/ha
In short: as §2

velvetleaf [9] = assay: Test Example 4: herbicidal effect by soil treatment (Table 19, symbol M); type: in vivo, velvetleaf (Abutilon theophrasti); conditions: amount of applied herbicide 320 g/ha
In short: as §2

redroot pigweed [10] = assay: Test Example 4: herbicidal effect by soil treatment (Table 19, symbol N); type: in vivo, redroot pigweed (Amaranthus retroflexus); conditions: amount of applied herbicide 320 g/ha
In short: as §2

lambsquarters [11] = assay: Test Example 4: herbicidal effect by soil treatment (Table 19, symbol O); type: in vivo, lambsquarters (Chenopodium album); conditions: amount of applied herbicide 320 g/ha
In short: as §2

chickweed [12] = assay: Test Example 4: herbicidal effect by soil treatment (Table 19, symbol P); type: in vivo, common chickweed (Stellaria media); conditions: amount of applied herbicide 320 g/ha
In short: as §2

persian speedwell [13] = assay: Test Example 4: herbicidal effect by soil treatment (Table 19, symbol R); type: in vivo, Persian speedwell (Veronica persica); conditions: amount of applied herbicide 320 g/ha
In short: as §2

southern crabgrass [14] = assay: Test Example 5: herbicidal effect by foliage application, plastic box (Table 20, symbol F); type: in vivo, southern crabgrass (Digitaria ciliaris); conditions: 320 g/ha, foliage application after 14-day growth, evaluated three weeks after application
In short: (§3)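 Foliar spray test: emulsion formulation diluted in water to a set application rate, sprayed onto 14-day-old plants raised in diluvial soil at 25° C to 30° C under glass. Both herbicidal effect and crop effect rated visually three weeks later.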

green foxtail [15] = assay: Test Example 5: herbicidal effect by foliage application, plastic box (Table 20, symbol G); type: in vivo, green foxtail (Setaria viridis); conditions: 320 g/ha, foliage application after 14-day growth, evaluated three weeks after application
In short: as §3

barnyard grass [16] = assay: Test Example 5: herbicidal effect by foliage application, plastic box (Table 20, symbol H); type: in vivo, barnyard grass (Echinochloa crus-galli); conditions: 320 g/ha, foliage application after 14-day growth, evaluated three weeks after application
In short: as §3

wild oat [17] = assay: Test Example 5: herbicidal effect by foliage application, plastic box (Table 20, symbol I); type: in vivo, wild oat (Avena fatua); conditions: 320 g/ha, foliage application after 14-day growth, evaluated three weeks after application
In short: as §3

blackgrass [18] = assay: Test Example 5: herbicidal effect by foliage application, plastic box (Table 20, symbol J); type: in vivo, blackgrass (Alopecurus myosuroides); conditions: 320 g/ha, foliage application after 14-day growth, evaluated three weeks after application
In short: as §3

Italian ryegrass [19] = assay: Test Example 5: herbicidal effect by foliage application, plastic box (Table 20, symbol K); type: in vivo, Italian ryegrass (Lolium multiflorum); conditions: 320 g/ha, foliage application after 14-day growth, evaluated three weeks after application
In short: as §3

windgrass [20] = assay: Test Example 5: herbicidal effect by foliage application, plastic box (Table 20, symbol L); type: in vivo, windgrass (Apera spica-venti); conditions: 320 g/ha, foliage application after 14-day growth, evaluated three weeks after application
In short: as §3

velvetleaf [21] = assay: Test Example 5: herbicidal effect by foliage application, plastic box (Table 20, symbol M); type: in vivo, velvetleaf (Abutilon theophrasti); conditions: 320 g/ha, foliage application after 14-day growth, evaluated three weeks after application
In short: as §3

redroot pigweed [22] = assay: Test Example 5: herbicidal effect by foliage application, plastic box (Table 20, symbol N); type: in vivo, redroot pigweed (Amaranthus retroflexus); conditions: 320 g/ha, foliage application after 14-day growth, evaluated three weeks after application
In short: as §3

lambsquarters [23] = assay: Test Example 5: herbicidal effect by foliage application, plastic box (Table 20, symbol O); type: in vivo, lambsquarters (Chenopodium album); conditions: 320 g/ha, foliage application after 14-day growth, evaluated three weeks after application
In short: as §3

chickweed [24] = assay: Test Example 5: herbicidal effect by foliage application, plastic box (Table 20, symbol P); type: in vivo, common chickweed (Stellaria media); conditions: 320 g/ha, foliage application after 14-day growth, evaluated three weeks after application
In short: as §3

persian speedwell [25] = assay: Test Example 5: herbicidal effect by foliage application, plastic box (Table 20, symbol R); type: in vivo, Persian speedwell (Veronica persica); conditions: 320 g/ha, foliage application after 14-day growth, evaluated three weeks after application
In short: as §3

Row | Structure (SMILES) | herbicidal effect on barnyard grass (H) (barnyard grass [1]) | herbicidal effect on Chinese sprangletop (D) (Chinese sprangletop) | herbicidal effect on rice flat sedge (E) (rice flat sedge) | Herbicidal effect by soil treatment, F: southern crabgrass (southern crabgrass [2]) | Herbicidal effect by soil treatment, G: green foxtail (green foxtail [3]) | Herbicidal effect by soil treatment, H: barnyard grass (barnyard grass [4]) | Herbicidal effect by soil treatment, I: wild oat (wild oat [5]) | Herbicidal effect by soil treatment, J: blackgrass (blackgrass [6]) | Herbicidal effect by soil treatment, K: Italian ryegrass (Italian ryegrass [7]) | Herbicidal effect by soil treatment, L: windgrass (windgrass [8]) | Herbicidal effect by soil treatment, M: velvetleaf (velvetleaf [9]) | Herbicidal effect by soil treatment, N: redroot pigweed (redroot pigweed [10]) | Herbicidal effect by soil treatment, O: lambsquarters (lambsquarters [11]) | Herbicidal effect by soil treatment, P: chickweed (chickweed [12]) | Herbicidal effect by soil treatment, R: persian speedwell (persian speedwell [13]) | herbicidal effect on F: southern crabgrass (evaluation grade 0-5) (southern crabgrass [14]) | herbicidal effect on G: green foxtail (evaluation grade 0-5) (green foxtail [15]) | herbicidal effect on H: barnyard grass (evaluation grade 0-5) (barnyard grass [16]) | herbicidal effect on I: wild oat (evaluation grade 0-5) (wild oat [17]) | herbicidal effect on J: blackgrass (evaluation grade 0-5) (blackgrass [18]) | other results
1 | Cc1nn(C)c(=O)c(-c2c(-c3ccc(OC(F)(F)F)cc3)sc3cc(Cl)ccc23)c1O [3-149] | 4 (Herbicidal rate of 70% or more and less than 90%) | 5 (Herbicidal rate of 90% or more (almost completely withered)) | 4 (Herbicidal rate of 70% or more and less than 90%) | 0 (Herbicidal rate of 5% or less (almost no effect)) | 0 (Herbicidal rate of 5% or less (almost no effect)) | 0 (Herbicidal rate of 5% or less (almost no effect)) | 0 (Herbicidal rate of 5% or less (almost no effect)) | 0 (Herbicidal rate of 5% or less (almost no effect)) | 0 (Herbicidal rate of 5% or less (almost no effect)) | 0 (Herbicidal rate of 5% or less (almost no effect)) | 1 (Herbicidal rate of 5% or more and less than 20%) | 3 (Herbicidal rate of 40% or more and less than 70%) | 0 (Herbicidal rate of 5% or less (almost no effect)) | 0 (Herbicidal rate of 5% or less (almost no effect)) | 0 (Herbicidal rate of 5% or less (almost no effect)) | 3 (Herbicidal rate of 40% or more and less than 70%) | 4 (Herbicidal rate of 70% or more and less than 90%) | 3 (Herbicidal rate of 40% or more and less than 70%) | 0 (Herbicidal rate of 5% or less (almost no effect)) | 5 (Herbicidal rate of 90% or more (almost completely withered)) | herbicidal effect on K: Italian ryegrass (evaluation grade 0-5) (Italian ryegrass [19]): 3 (Herbicidal rate of 40% or more and less than 70%); herbicidal effect on L: windgrass (evaluation grade 0-5) (windgrass [20]): 5 (Herbicidal rate of 90% or more (almost completely withered)); herbicidal effect on M: velvetleaf (evaluation grade 0-5) (velvetleaf [21]): 4 (Herbicidal rate of 70% or more and less than 90%); herbicidal effect on N: redroot pigweed (evaluation grade 0-5) (redroot pigweed [22]): 3 (Herbicidal rate of 40% or more and less than 70%); herbicidal effect on O: lambsquarters (evaluation grade 0-5) (lambsquarters [23]): 4 (Herbicidal rate of 70% or more and less than 90%); herbicidal effect on P: chickweed (evaluation grade 0-5) (chickweed [24]): 0 (Herbicidal rate of 5% or less (almost no effect)); herbicidal effect on R: persian speedwell (evaluation grade 0-5) (persian speedwell [25]): 4 (Herbicidal rate of 70% or more and less than 90%)
2 | Cc1ccc2c(-c3c(O)c(C)nn(C)c3=O)c(-c3ccc(OC(F)F)cc3)sc2c1 [3-151] | 3 (Herbicidal rate of 40% or more and less than 70%) | 0 (Herbicidal rate of 5% or less (almost no effect)) | 3 (Herbicidal rate of 40% or more and less than 70%) | 0 (Herbicidal rate of 5% or less (almost no effect)) | 0 (Herbicidal rate of 5% or less (almost no effect)) | 0 (Herbicidal rate of 5% or less (almost no effect)) | 0 (Herbicidal rate of 5% or less (almost no effect)) | 0 (Herbicidal rate of 5% or less (almost no effect)) | 0 (Herbicidal rate of 5% or less (almost no effect)) | 0 (Herbicidal rate of 5% or less (almost no effect)) | 0 (Herbicidal rate of 5% or less (almost no effect)) | 0 (Herbicidal rate of 5% or less (almost no effect)) | 0 (Herbicidal rate of 5% or less (almost no effect)) | 1 (Herbicidal rate of 5% or more and less than 20%) | 5 (Herbicidal rate of 90% or more (almost completely withered)) | 0 (Herbicidal rate of 5% or less (almost no effect)) | 0 (Herbicidal rate of 5% or less (almost no effect)) | 0 (Herbicidal rate of 5% or less (almost no effect)) | 0 (Herbicidal rate of 5% or less (almost no effect)) | 0 (Herbicidal rate of 5% or less (almost no effect)) | herbicidal effect on K: Italian ryegrass (evaluation grade 0-5) (Italian ryegrass [19]): 2 (Herbicidal rate of 20% or more and less than 40%); herbicidal effect on L: windgrass (evaluation grade 0-5) (windgrass [20]): 0 (Herbicidal rate of 5% or less (almost no effect)); herbicidal effect on M: velvetleaf (evaluation grade 0-5) (velvetleaf [21]): 3 (Herbicidal rate of 40% or more and less than 70%); herbicidal effect on N: redroot pigweed (evaluation grade 0-5) (redroot pigweed [22]): 2 (Herbicidal rate of 20% or more and less than 40%); herbicidal effect on O: lambsquarters (evaluation grade 0-5) (lambsquarters [23]): 3 (Herbicidal rate of 40% or more and less than 70%); herbicidal effect on P: chickweed (evaluation grade 0-5) (chickweed [24]): 5 (Herbicidal rate of 90% or more (almost completely withered)); herbicidal effect on R: persian speedwell (evaluation grade 0-5) (persian speedwell [25]): 5 (Herbicidal rate of 90% or more (almost completely withered))
